The source of these data is article PMC11191095, “QSAR Reveals Decreased Lipophilicity of Polar Residues Determines the Selectivity of Antimicrobial Peptide Activity” (ACS Omega, 2024).

Where a SMILES comes first, the peptide text is derived from it.

In series [1] the test system is HaCat cell line. The series can be described thus: In vitro HaCat cytotoxicity (MTT). The format is cell-based, human. To be noted: 21 h exposure, OD570, relative to untreated control. The procedure, abridged: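 HaCat keratinocytes were first screened with peptide at 256 μg/mL for 21 h at 37 °C, and a dose-response was run only when cytotoxicity reached p < 0.0001. Viability was read by MTT (3 h, OD570) relative to untreated control, and LC50 was taken from the dose-response curves.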

Series [2] deals with S. aureus (MRSA) USA300. The experiment in a line: microbe, parasite or virus in culture. Type of series: cell-based, Staphylococcus aureus. To be noted: S. aureus (MRSA) USA300 (R). The procedure, abridged: (§1)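 Peptides 128→2 μg/mL, 2-fold series; inoculum ~5 × 10^5 CFU/mL from overnight culture (OD600 0.01, mixed 1:1). MHB non-cation-adjusted for bacteria, RPMI 1640 + 2% glucose for fungi. 37 °C, 20 h, OD600. MIC50/MIC90 at 50%/90% inhibition; n ≥ 3.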

Series [3] is described as follows: RP-HPLC ElutionTime as indicator of hydrophobicity. The format is physicochemical. The following applies: indicator of overall hydrophobicity; semipreparative RP-HPLC, Waters SymmetryPrep C8, water/ACN gradient with 0.1% TFA, 8 mL/min, 25 °C, 254 nm. How it is done:
Crude peptides, made up to 10 mg/mL in 0.1% TFA (v/v) in ddH2O, were subjected to preparative RP-HPLC purification on an Agilent 1100 system, with elution in gradient. A gradient program at a flow rate of 8 mL/min and column temperature of 25 °C was used to achieve elution with solvent A (0.1% trifluoroacetic acid (TFA) in water (v/v)) and solvent B (0.1% TFA in 100% acetonitrile (ACN) (v/v)). The elution program was as follows: (1) At 0–73 min, 100% solvent A to 0% solvent B; (2) at 73–77 min, 40% solvent A to 60% solvent B; (3) at 77–93 min, 10% solvent A to 90% solvent B; (4) at 93–105 min, 100% solvent A to 0% solvent B. Data collected were the retention time of the major fraction for each peptide in minutes as RP-HPLC ElutionTime (ElutionTime). Absorbance was detected at 254 nm, and fractions were collected manually. The fractions collected were spun in a speed-vac to remove ACN and the contents lyophilized. After freeze-drying for 24 h the peptides were dissolved in 10% (v/v) acetic acid before being lyophilized for a second time and then stored at −20 °C.
Molecular descriptors used in the QSAR analysis included: charge, sequence length, overall lipophilicity (L), lipophilicity contributed by the polar or nonpolar residues (LP and LN), summation of the side chain surface areas of the total peptide, polar or nonpolar residues (SCSA, SCSAP, and SCSAN), the molecular weight of the entire peptide, polar or nonpolar residues (Mw, MwP, and MwN), count of small lipophilic residues (CSL) or aromatic residues (CAR), the total number of hydrogen bond donor and acceptor centers (HBtot, HBdon, and HBacc), the total number of rotatable bonds (#RotBonds) and various amphipathicity descriptors (LP/L, LP/LN, L/LN, Q/L, Q/LN, SCSAP/SCSAN, MwP/MwN, Q/CSL, and Q/CAR) (Suppl. Table S1). Experimentally determined characteristics included ElutionTime as an indicator of overall peptide hydrophobicity and the CD structure of each peptide determined in POPG/POPE lipids representing Gram-negative membranes, POPG lipids for Gram-positive membranes, and SDS micelles for fungal membranes. AMPs with an α-helical structure were labeled 4, β-sheets were labeled 3, β-turns and mixed conformations were labeled 2, and disordered structures were labeled 1.

Series [4] relates to P. aeruginosa PAO1. The experiment in a line: microbe, parasite or virus in culture. The format is cell-based, Pseudomonas aeruginosa. To be noted: P. aeruginosa PAO1 (S). The procedure, abridged: as §1
[5] abbreviates: MHB, 37 °C, 20 h, OD600, min. three biological repeats.

Take `CC(C)[C@H](NC(=O)CNC(=O)[C@H](CCCNC(=N)N)NC(=O)[C@H](CCCNC(=N)N)NC(=O)[C@H](CS)NC(=O)[C@@H](NC(=O)[C@H](CS)NC(=O)[C@@H](N)CCCNC(=N)N)C(C)C)C(=O)N[C@@H](CS)C(=O)N[C@@H](CCCNC(=N)N)C(=O)N[C@@H](CS)C(=O)N[C@H](C(=O)N[C@@H](CS)C(=O)N[C@@H](CCCNC(=N)N)C(=O)N[C@@H](CCCNC(=N)N)C(N)=O)C(C)C` [BTD15a] (H-RCVCRRGVCRCVCRR-NH2; N-terminus assumed): the “% HaCat cell death at initial screening (256μg/mL) ± SD” value in series [1] is 20%. Further, the “Modal MIC” value in series [2] (setting [5]) is given as 8 µg/mL; in series [2] (shown in µM), 4.4 µM. The “ElutionTime (RP-HPLC retention time of major fraction)” value in series [3] turned out to be 20 min.
As to `CC[C@H](C)[C@H](NC(=O)CNC(=O)[C@@H](N)CCCNC(=N)N)C(=O)N[C@@H](CCCNC(=N)N)C(=O)NCC(=O)N[C@@H](Cc1ccc(O)cc1)C(=O)N[C@@H](CCCCN)C(=O)NCC(=O)NCC(=O)N[C@@H](Cc1ccc(O)cc1)C(=O)N[C@@H](CS)C(=O)N[C@H](C(=O)NCC(=O)N[C@@H](CCCNC(=N)N)C(=O)N[C@@H](Cc1ccccc1)C(=O)N[C@@H](CCCCN)C(=O)N[C@@H](CCC(N)=O)C(=O)N[C@H](C(=O)N[C@@H](CS)C(=O)N[C@@H](CCCCN)C(=O)N[C@@H](CS)C(=O)N[C@@H](Cc1ccc(O)cc1)C(=O)O)[C@@H](C)O)[C@@H](C)O` [OmDefB] (H-RGIRGYKGGYCTGRFKQTCKCY-OH; N-terminus and C-terminus assumed), the “Modal MIC” value in series [2] (setting [5]) is on record as more than 128 µg/mL; in series [2] (shown in µM), more than 49.9 µM; in series [4] (setting [5]), more than 128 µg/mL; in series [4] (shown in µM), more than 49.9 µM. Also, in series [3], the “ElutionTime (RP-HPLC retention time of major fraction)” value came to 25 min.
With `C[C@H](NC(=O)CNC(=O)[C@H](CCCCN)NC(=O)[C@@H](N)CS)C(=O)N[C@@H](Cc1ccccc1)C(=O)N[C@@H](CCCCN)C(=O)N[C@@H](CCC(N)=O)C(=O)N[C@H](C(=O)N[C@@H](CS)C(=O)N[C@@H](CCCCN)C(=O)N[C@@H](CS)C(=O)N[C@@H](Cc1ccc(O)cc1)C(N)=O)[C@@H](C)O` [Os(11-22)a] (H-CKGAFKQTCKCY-NH2; N-terminus assumed), the “% HaCat cell death at initial screening (256μg/mL) ± SD” value is 59.5 ±13.9% in series [1] and 59.5% in series [1] (listed as Os(11–22)a). Also, the “Modal MIC” value is more than 128 µg/mL in series [2] (setting [5]), more than 91.7 µM in series [2] (shown in µM), more than 128 µg/mL in series [4] (setting [5]) and more than 91.7 µM in series [4] (shown in µM). For the same compound, the “ElutionTime (RP-HPLC retention time of major fraction)” value in series [3] is 21,3 min.
Turning to `CC[C@H](C)[C@H](NC(=O)CNC(=O)[C@@H](N)CCCCN)C(=O)N[C@@H](CCCNC(=N)N)C(=O)NCC(=O)N[C@@H](Cc1ccc(O)cc1)C(=O)N[C@@H](CCCCN)C(=O)NCC(=O)NCC(=O)N[C@@H](Cc1ccc(O)cc1)C(=O)N[C@@H](CS)C(=O)N[C@@H](CCCCN)C(=O)NCC(=O)N[C@@H](C)C(=O)N[C@@H](Cc1ccccc1)C(=O)N[C@@H](CCCCN)C(=O)N[C@@H](CCC(N)=O)C(=O)N[C@H](C(=O)N[C@@H](CS)C(=O)N[C@@H](CCCCN)C(=O)N[C@@H](CS)C(=O)N[C@@H](Cc1ccc(O)cc1)C(=O)O)[C@@H](C)O` [Os] (H-KGIRGYKGGYCKGAFKQTCKCY-OH; N-terminus and C-terminus assumed), the “Modal MIC” value in series [2] (setting [5]) is more than 128 µg/mL; in series [2] (shown in µM) it was more than 51.7 µM; in series [4] (setting [5]), more than 128 µg/mL; in series [4] (shown in µM) it was more than 51.7 µM. Further, the “ElutionTime (RP-HPLC retention time of major fraction)” value in series [3] is 24,7 min.
Turning to `CC[C@H](C)[C@H](NC(=O)CNC(=O)[C@@H](N)CCCCN)C(=O)N[C@@H](CCCNC(=N)N)C(=O)NCC(=O)N[C@@H](Cc1ccc(O)cc1)C(=O)N[C@@H](CCCCN)C(=O)NCC(=O)NCC(=O)N[C@@H](Cc1ccc(O)cc1)C(=O)N[C@@H](CS)C(=O)N[C@@H](CCCCN)C(=O)NCC(=O)N[C@@H](C)C(=O)N[C@@H](Cc1ccccc1)C(=O)N[C@@H](CCCCN)C(=O)N[C@@H](CCC(N)=O)C(=O)N[C@H](C(=O)N[C@@H](CS)C(=O)N[C@@H](CCCCN)C(=O)N[C@@H](CS)C(=O)N[C@@H](Cc1ccc(O)cc1)C(N)=O)[C@@H](C)O` [Osa] (H-KGIRGYKGGYCKGAFKQTCKCY-NH2; N-terminus assumed), the “Modal MIC” value in series [2] (setting [5]) is given as more than 128 µg/mL; in series [2] (shown in µM) it was more than 51.7 µM; in series [4] (setting [5]), more than 128 µg/mL; in series [4] (shown in µM) it was more than 51.7 µM. In addition, in series [3], the “ElutionTime (RP-HPLC retention time of major fraction)” value was 24,5 min.
On to “KCLTLRSLKKTLKFCASGRT-NH2 [X1-20a, novel amidated frog AMP derivative, Xenopus laevis]”, for which the “Modal MIC” value in series [2] (setting [5]) is reported as more than 128 µg/mL; in series [2] (shown in µM) it was more than 55 µM; in series [4] (setting [5]) it was more than 128 µg/mL; in series [4] (shown in µM) it was more than 55 µM. In addition, the “ElutionTime (RP-HPLC retention time of major fraction)” value in series [3] was 31,7 min.
